As a reminder, the inhibition is the change of the read-out against control, counted positive when it falls. Low readings indicate a response near the control, high ones a response far below the control.

The text below walks through data of paper PMC6934184, “Selective DNA-PKcs inhibition extends the therapeutic index of localized radiotherapy and chemotherapy” (The Journal of Clinical Investigation, 2019).

The experiment addresses T1, EGFR (ErbB1) L861Q (Homo sapiens, UniProt P00533, L861Q).
T1 construct: purchased Thermo Fisher Scientific (Life Technologies) SelectScreen
As to the kind of experiment: SelectScreen Z'LYTE. It is filed as biochemical. The method in brief:
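Percent values come from Thermo SelectScreen profiling of NU5455, combining activity and binding assays. CSF1R was run in Z'LYTE format at Km app ATP, and CAMK1 in Adapta format with ATP listed at 10.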

T1 sequence (P00533 25-1210 L861Q): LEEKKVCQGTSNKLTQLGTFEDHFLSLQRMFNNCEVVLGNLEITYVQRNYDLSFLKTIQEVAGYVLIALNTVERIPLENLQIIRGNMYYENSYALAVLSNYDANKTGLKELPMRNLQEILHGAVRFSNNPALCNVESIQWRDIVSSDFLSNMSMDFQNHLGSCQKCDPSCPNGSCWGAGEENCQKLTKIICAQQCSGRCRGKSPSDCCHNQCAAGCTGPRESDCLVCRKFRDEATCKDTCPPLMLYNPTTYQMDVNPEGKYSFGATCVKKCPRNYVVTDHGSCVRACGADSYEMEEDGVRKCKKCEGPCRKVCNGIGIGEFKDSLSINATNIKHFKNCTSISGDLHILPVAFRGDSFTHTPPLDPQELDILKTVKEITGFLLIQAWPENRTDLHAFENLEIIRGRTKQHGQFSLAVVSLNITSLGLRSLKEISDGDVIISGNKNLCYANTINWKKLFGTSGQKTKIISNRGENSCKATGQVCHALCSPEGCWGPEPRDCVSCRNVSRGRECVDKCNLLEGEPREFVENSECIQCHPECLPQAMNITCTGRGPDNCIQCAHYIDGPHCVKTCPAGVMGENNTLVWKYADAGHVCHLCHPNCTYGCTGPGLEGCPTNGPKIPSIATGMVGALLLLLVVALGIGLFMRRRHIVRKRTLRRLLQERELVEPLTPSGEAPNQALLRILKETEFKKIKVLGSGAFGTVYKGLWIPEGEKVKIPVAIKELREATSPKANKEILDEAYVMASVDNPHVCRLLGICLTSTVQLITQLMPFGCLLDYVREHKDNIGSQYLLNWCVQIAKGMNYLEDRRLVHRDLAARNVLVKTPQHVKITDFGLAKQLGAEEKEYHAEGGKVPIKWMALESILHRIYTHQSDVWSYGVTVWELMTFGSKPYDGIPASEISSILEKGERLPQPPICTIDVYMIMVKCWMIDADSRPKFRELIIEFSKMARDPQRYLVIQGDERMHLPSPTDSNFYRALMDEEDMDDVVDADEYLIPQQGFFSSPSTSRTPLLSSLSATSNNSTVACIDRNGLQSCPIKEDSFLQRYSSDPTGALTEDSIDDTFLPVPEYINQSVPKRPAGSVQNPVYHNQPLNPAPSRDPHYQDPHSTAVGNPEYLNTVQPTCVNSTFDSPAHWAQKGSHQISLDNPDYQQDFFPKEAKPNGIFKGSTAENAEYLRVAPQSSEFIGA

In turn, `CN(C(=O)CN1CCOCC1)c1ccc2sc3c(-c4cccc5c(=O)cc(N6CC7CCC(C6)O7)oc45)cccc3c2c1` [NU5455] had an inhibition at 1 µM of 2.2%.
